Laboratory results reported in US12649709B2, “Naphthoquinone-based chalcone derivatives and uses thereof” (priority 2020, dated 2026).

Legend:
[1] = system: Human Liver cells (Hep-G2); assay: Cellular metabolic activity, autobioluminescent liver cells; assay type: cell-based; conditions: for concentration-dependent effect on cellular metabolism over time: 24 h
Protocol: Autobioluminescent Human Epithelial Kidney cells (HEK-293, 490 Biotech) and Human Liver cells (Hep-G2, 490 Biotech) and Human primary astrocytes (490 Biotech) were seeded at 10,000 kidney cells/well, or 50,000 liver cells/well, in 96-well tissue culture treated plates (Falcon) in growth media. The growth media consists of the following: DMEM (Hyclone), 10% heat-inactivated FBS (Gibco), 1% Sodium Pyruvate (HyClone), 1% antibiotic/antimyotic (Hyclone) and 100 μg G418/ml (Gibco). Cells were grown for 2 days prior to treatment with dimenadione derivative compounds. […] The treated cells were incubated at 37° C. and 5% CO2 for x hours. At each concentration, bioluminescence was measured with either a BMG Labtech clarioSTAR plate reader or an IVIS CCD camera system. Any changes in cell bioluminescence were recorded as photons/per well. The replicates were averaged, and all conditions were normalized to background light detection (medium-only control wells). The vehicle-only controls were compared to the untreated controls to make sure there was not change in metabolic activity due to the solvent. All other treatments were then compared to the vehicle control. The relative change in light output was measured between each treatment and the vehicle control at each timepoint. The amount of light being made is proportional to metabolic activity (as measured by FMNH2 availability, which provides the same information as a traditional ATP content assay (i.e., CellTiter Glo).
5 fM to 5 μM (10 μL/well) of individual compounds solubilized in DMSO were incubated with cells in 96-well plates. The reference compound was DMSO-only vehicle control, at a final concentration of 0.1% DMSO. Importantly maximally effective concentrations of the compound, in the mid-picomolar to mid-nanomolar range, increased metabolic activity by as much as 2.5-fold. This observation aligns with the core hypothesized mechanism of the compound which has been designed to integrate into the mitochondrial ETC and improve energy production in the form of ATP in mitochondria. Increased energy production is reflected in overall cellular metabolism of the cells.

[2] = system: Autobioluminescent Human Epithelial Kidney cells (HEK-293); assay: Cellular metabolic activity, autobioluminescent kidney cells; assay type: cell-based; conditions: FIG. 7A; Hematin:RLS3 1:1,000; 0.5 pM-5 nM RLS3; 14-hour period post-exposure; kidney cell model
Protocol: (§1) Autobioluminescent Human Epithelial Kidney cells (HEK-293, 490 Biotech) and Human Liver cells (Hep-G2, 490 Biotech) and Human primary astrocytes (490 Biotech) were seeded at 10,000 kidney cells/well, or 50,000 liver cells/well, in 96-well tissue culture treated plates (Falcon) in growth media. The growth media consists of the following: DMEM (Hyclone), 10% heat-inactivated FBS (Gibco), 1% Sodium Pyruvate (HyClone), 1% antibiotic/antimyotic (Hyclone) and 100 μg G418/ml (Gibco). Cells were grown for 2 days prior to treatment with dimenadione derivative compounds. The media was aspirated and cells were washed with 1×PBS (Fisher, SH30256.01) and treated with serial dilutions ranging from 5 fM to 5 μM (1 mL/well) dimenadione derivative compounds. The treated cells were incubated at 37° C. and 5% CO2 for x hours. At each concentration, bioluminescence was measured with either a BMG Labtech clarioSTAR plate reader or an IVIS CCD camera system. Any changes in cell bioluminescence were recorded as photons/per well. […] The relative change in light output was measured between each treatment and the vehicle control at each timepoint. The amount of light being made is proportional to metabolic activity (as measured by FMNH2 availability, which provides the same information as a traditional ATP content assay (i.e., CellTiter Glo). […]

primary astrocytes = assay: Cellular metabolic activity, autobioluminescent neuronal (astrocyte) cells; assay type: cell-based, murine; conditions: 24 hour period
Protocol: as §1

[3] = FIG. 8A, complexed with Hematin 1:1,000, 0.5 nM-5 μM, 24-hour period post-exposure, liver cells
[4] = complexed with hematin (FIG. 8A), liver cells
[5] = without hematin complexation (FIG. 8B), 1 pM-10 μM, liver cells

## COc1cc(C)c(OC)c2ccccc12 [RLS3, 1,4-Dimethoxy-2-Methylnaphthalene]
[1]; FIG. 7B, Hematin:RLS3 1:1,000, 500 pM-5 μM RLS3, 14 h period post-exposure, liver cell model as printed
  metabolic activity (bioluminescence) over time: increase in metabolic activity over time
[1]; [3]
  metabolic activity (bioluminescence) over time: increase in metabolic activity over time
[1]; [4]
  concentration-dependent effect on cellular metabolism over time: seemed to show a concentration-dependent effect
[1]; [5]
  concentration-dependent effect on cellular metabolism over time: did not
[2]
  metabolic activity (bioluminescence) over time: increase in metabolic activity over time

## COc1c(C)c(C=O)c(OC)c2ccccc12 [RLS4, 1,4-Dimethoxy-3-Methyl-2-Naphthaldehyde]
[1]; [3]
  metabolic activity (bioluminescence) over time: increase in metabolic activity over time
[1]; [4]
  concentration-dependent effect on cellular metabolism over time: seemed to show a concentration-dependent effect
[1]; [5]
  concentration-dependent effect on cellular metabolism over time: did not

## COc1c(C)c(/C=C/C(=O)/C=C(O)/C=C/c2c(C)c(OC)c3ccccc3c2OC)c(OC)c2ccccc12 [RLS5, (1E,4Z,6E)-1,7-Bis(1,4-Dimethoxy-3-methylnaphthalen-2-yl)-5-Hydroxyhepta-1,4,6-trien-3-one]
Primary astrocytes; FIG. 9A, 100 pM and 1 nM RLS5 with Hematoporphyrin complexation (1:1000)
  effect on cellular metabolism: slight concentration dependent effect
Primary astrocytes; FIG. 9B, 100 pM and 1 nM RLS5 without Hematoporphyrin complexation
  effect on cellular metabolism: slight concentration dependent effect
